# Measurements as given in patent US7183260B2, “C-terminal modified oxamyl dipeptides as inhibitors of the ICE/ced-3 family of cysteine proteases” (Idun Pharmaceuticals, Inc., priority 1998, dated 2007).
# Read-outs that look alike come from different tables or passages of the source.
# Experiments:
# Type in all cases: biochemical
# mICE = biological target: T1, mICE (Mus musculus, UniProt P29452); test: Dissociation constant Ki and irreversible rate constant k3 for irreversible inhibitors (ICE)
# T1 sequence (P29452 123-296 limits assumed): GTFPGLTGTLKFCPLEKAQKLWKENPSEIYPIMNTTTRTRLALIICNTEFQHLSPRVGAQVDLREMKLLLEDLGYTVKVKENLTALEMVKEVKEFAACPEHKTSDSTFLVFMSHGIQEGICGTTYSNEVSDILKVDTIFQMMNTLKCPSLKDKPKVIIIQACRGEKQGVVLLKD
# T1 sequence (P29452 315-402 limits assumed): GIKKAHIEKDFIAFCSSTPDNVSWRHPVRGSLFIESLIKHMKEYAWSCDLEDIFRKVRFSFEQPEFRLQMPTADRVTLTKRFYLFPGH
# CPP32 = biological target: T2, CPP32 (Homo sapiens, UniProt P42574); test: Dissociation constant Ki and irreversible rate constant k3 for irreversible inhibitors (CPP32)
# T2 sequence (P42574 29-175 limits assumed): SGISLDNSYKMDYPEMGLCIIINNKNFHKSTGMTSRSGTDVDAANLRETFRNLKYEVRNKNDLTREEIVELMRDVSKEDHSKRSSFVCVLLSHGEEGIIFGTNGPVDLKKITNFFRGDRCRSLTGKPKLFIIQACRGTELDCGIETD
# T2 sequence (P42574 176-277 limits assumed): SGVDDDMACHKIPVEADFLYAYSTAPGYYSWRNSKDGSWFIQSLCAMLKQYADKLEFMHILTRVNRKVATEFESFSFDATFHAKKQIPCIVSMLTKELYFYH
# MCH-2 = biological target: T3, MCH-2 (Homo sapiens, UniProt P55212); test: Dissociation constant Ki and irreversible rate constant k3 for irreversible inhibitors (Mch2)
# T3 sequence (P55212 24-179 limits assumed): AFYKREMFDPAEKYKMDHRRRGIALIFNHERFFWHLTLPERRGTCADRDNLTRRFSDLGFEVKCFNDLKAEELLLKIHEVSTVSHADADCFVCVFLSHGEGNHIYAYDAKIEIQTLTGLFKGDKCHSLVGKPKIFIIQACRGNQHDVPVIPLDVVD
# T3 sequence (P55212 194-293 limits assumed): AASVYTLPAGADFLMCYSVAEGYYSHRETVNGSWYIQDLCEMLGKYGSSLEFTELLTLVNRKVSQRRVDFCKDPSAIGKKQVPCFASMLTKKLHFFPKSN
# MCH-5 = MCH-5 (Homo sapiens, UniProt Q14790); test: Dissociation constant Ki and irreversible rate constant k3 for irreversible inhibitors (Mch5)
# MCH-5, sequence (Q14790 217-374 limits assumed, species assumed): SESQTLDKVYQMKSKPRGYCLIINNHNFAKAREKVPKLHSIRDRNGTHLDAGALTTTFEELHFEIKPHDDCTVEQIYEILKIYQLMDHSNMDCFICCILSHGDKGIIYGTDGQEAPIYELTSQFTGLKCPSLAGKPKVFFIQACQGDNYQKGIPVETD
# MCH-5, sequence (Q14790 385-479 limits assumed, species assumed): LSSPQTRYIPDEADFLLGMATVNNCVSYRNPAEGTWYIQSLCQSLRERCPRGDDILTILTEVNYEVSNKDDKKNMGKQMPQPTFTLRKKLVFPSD
# [1] = continuous assay 60 min, reaction initiated by adding enzyme to substrate-inhibitor mixture
Compound,Ki (mICE; [1]),mICE k3/Ki (mICE; [1]),CPP32 k3/Ki (CPP32; [1]),Ki (CPP32; [1]),Ki (MCH-2; [1]),MCH-2 k3/Ki (MCH-2; [1]),Ki (MCH-5; [1]),MCH-5 k3/Ki (MCH-5; [1]),Ki (mICE),mICE k3/Ki (mICE),CPP32 k3/Ki (CPP32),Ki (CPP32),Ki (MCH-2),MCH-2 k3/Ki (MCH-2),Ki (MCH-5),MCH-5 k3/Ki (MCH-5)
C[C@H](NC(=O)C(=O)NCCc1ccccc1)C(=O)N[C@@H](CC(=O)O)C(=O)COP(=O)(c1ccccc1)c1ccccc1 [Example 72],12 nM,"1,230,000 moles^−1 seconds^−1","169,000 moles^−1 seconds^−1",94 nM,26 nM,"131,000 moles^−1 seconds^−1",8.1 nM,"667,000 moles^−1 seconds^−1",–,–,–,–,–,–,–,–
CC(C)[C@H](NC(=O)C(=O)Nc1cnccn1)C(=O)N[C@@H](CC(=O)O)C(=O)COc1c(F)c(F)cc(F)c1F [Example 103],5.3 nM,–,–,60 nM,17 nM,–,4.7 nM,–,–,–,–,–,–,–,–,–
C[C@H](NC(=O)C(=O)Nc1cc(C(C)(C)C)ccc1C(C)(C)C)C(=O)N[C@@H](CC(=O)O)C(=O)COc1c(F)c(F)cc(F)c1F [Example 40],45 nM,"195,000 moles^−1 seconds^−1","221,000 moles^−1 seconds^−1",63 nM,15 nM,"192,000 moles^−1 seconds^−1",10 nM,"248,000 moles^−1 seconds^−1",–,–,–,–,–,–,–,–
C[C@H](NC(=O)C(=O)Nc1ccccc1-c1ccccc1)C(=O)N[C@@H](CC(=O)O)C(=O)COc1ccccc1F [Example 28],46 nM,"167,000 moles^−1 seconds^−1","55,600 moles^−1 seconds^−1",109 nM,42 nM,"35,000 moles^−1 seconds^−1",5.8 nM,"37,800 moles^−1 seconds^−1",–,–,–,–,–,–,–,–
CC(C)[C@H](NC(=O)C(=O)Nc1ccccc1F)C(=O)N[C@@H](CC(=O)O)C(=O)COc1c(F)c(F)cc(F)c1F [Example 90],147 nM,"58,500 moles^−1 seconds^−1","5,560 moles^−1 seconds^−1",2270 nM,221 nM,"11,200 moles^−1 seconds^−1",40 nM,"49,600 moles^−1 seconds^−1",–,–,–,–,–,–,–,–
C[C@H](NC(=O)C(=O)Nc1cccc2c1CCCC2)C(=O)N[C@@H](CC(=O)O)C(=O)COP(=O)(c1ccccc1)c1ccccc1 [Example 48],11 nM,"905,000 moles^−1 seconds^−1","139,000 moles^−1 seconds^−1",69 nM,22 nM,"132,000 moles^−1 seconds^−1",4.1 nM,"1,150,000 moles^−1 seconds^−1",–,–,–,–,–,–,–,–
C[C@H](NC(=O)C(=O)Nc1ccccc1I)C(=O)N[C@@H](CC(=O)O)C(=O)COP(=O)(c1ccccc1)c1ccccc1 [Example 74],303 nM,"36,300 moles^−1 seconds^−1","78,300 moles^−1 seconds^−1",161 nM,78 nM,"66,200 moles^−1 seconds^−1",70 nM,"46,300 moles^−1 seconds^−1",–,–,–,–,–,–,–,–
CC(C)[C@H](NC(=O)C(=O)Nc1cc(C(C)(C)C)ccc1C(C)(C)C)C(=O)N[C@@H](CC(=O)O)C(=O)COc1c(F)c(F)cc(F)c1F [Example 109],25 nM,"767,000 moles^−1 seconds^−1","70,600 moles^−1 seconds^−1",193 nM,232 nM,"8,230 moles^−1 seconds^−1",34 nM,"51,300 moles^−1 seconds^−1",–,–,–,–,–,–,–,–
C[C@H](NC(=O)C(=O)Nc1ccccc1I)C(=O)N[C@@H](CC(=O)O)C(=O)COC(=O)c1c(Cl)cccc1Cl [Example 75],13 nM,"1,270,000 moles^−1 seconds^−1","67,600 moles^−1 seconds^−1",105 nM,34 nM,"28,200 moles^−1 seconds^−1",4 nM,"551,000 moles^−1 seconds^−1",–,–,–,–,–,–,–,–
CC(C)[C@H](NC(=O)C(=O)NC12CC3CC(CC(C3)C1)C2)C(=O)N[C@@H](CC(=O)O)C(=O)COc1c(F)c(F)cc(F)c1F [Example 89],52 nM,"184,000 moles^−1 seconds^−1","6,330 moles^−1 seconds^−1",1510 nM,152 nM,"10,700 moles^−1 seconds^−1",40 nM,"59,900 moles^−1 seconds^−1",–,–,–,–,–,–,–,–
C[C@H](NC(=O)C(=O)Nc1ccccc1-c1ccccc1)C(=O)N[C@@H](CC(=O)O)C(=O)COP(=O)(c1ccccc1)c1ccccc1 [Example 30],22 nM,"345,000 moles^−1 seconds^−1","243,000 moles^−1 seconds^−1",42 nM,25 nM,"317,000 moles^−1 seconds^−1",24 nM,"207,000 moles^−1 seconds^−1",–,–,–,–,–,–,–,–
C[C@H](NC(=O)C(=O)Nc1cccc2c1CCCC2)C(=O)N[C@@H](CC(=O)O)C(=O)COc1c(F)c(F)cc(F)c1F [Example 50],640 nM,"22,000 moles^−1 seconds^−1","118,000 moles^−1 seconds^−1",129 nM,72 nM,"64,100 moles^−1 seconds^−1",74 nM,"46,200 moles^−1 seconds^−1",–,–,–,–,–,–,–,–
C[C@H](NC(=O)C(=O)Nc1ccc(F)cc1)C(=O)N[C@@H](CC(=O)O)C(=O)COP(=O)(c1ccccc1)c1ccccc1 [Example 43],13 nM,"956,000 moles^−1 seconds^−1","268,000 moles^−1 seconds^−1",52 nM,9 nM,"424,000 moles^−1 seconds^−1",3.6 nM,"2,300,000 moles^−1 seconds^−1",–,–,–,–,–,–,–,–
C[C@H](NC(=O)C(=O)Nc1ccccc1F)C(=O)N[C@@H](CC(=O)O)C(=O)COC(=O)c1c(Cl)cccc1Cl [Example 39],116 nM,"172,000 moles^−1 seconds^−1","68,900 moles^−1 seconds^−1",202 nM,23 nM,"129,000 moles^−1 seconds^−1",40 nM,"155,000 moles^−1 seconds^−1",–,–,–,–,–,–,–,–
CC(C)[C@H](NC(=O)C(=O)Nc1cccc2ccccc12)C(=O)N[C@@H](CC(=O)O)C(=O)COc1c(F)cc(F)cc1F [Example 6],8.8 nM,–,–,39 nM,42 nM,–,5.3 nM,–,–,–,–,–,–,–,–,–
C[C@H](NC(=O)C(=O)NCc1ccccc1)C(=O)N[C@@H](CC(=O)O)C(=O)COc1c(F)c(F)cc(F)c1F [Example 51],1010 nM,"13,900 moles^−1 seconds^−1","54,300 moles^−1 seconds^−1",370 nM,70 nM,"42,800 moles^−1 seconds^−1",83 nM,"23,100 moles^−1 seconds^−1",–,–,–,–,–,–,–,–
CC(C)[C@H](NC(=O)C(=O)NCCc1ccccc1)C(=O)N[C@@H](CC(=O)O)C(=O)COc1c(F)c(F)cc(F)c1F [Example 80],182 nM,"77,100 moles^−1 seconds^−1","13,400 moles^−1 seconds^−1",515 nM,175 nM,"12,600 moles^−1 seconds^−1",162 nM,"16,600 moles^−1 seconds^−1",–,–,–,–,–,–,–,–
C[C@H](NC(=O)C(=O)NC1CCCCC1)C(=O)N[C@@H](CC(=O)O)C(=O)COP(=O)(c1ccccc1)c1ccccc1 [Example 56],5.3 nM,"2,032,000 moles^−1 seconds^−1","137,000 moles^−1 seconds^−1",96 nM,25 nM,"97,500 moles^−1 seconds^−1",2.5 nM,"1,790,000 moles^−1 seconds^−1",–,–,–,–,–,–,–,–
C[C@H](NC(=O)C(=O)Nc1ccccc1Cl)C(=O)N[C@@H](CC(=O)O)C(=O)COC(=O)c1c(Cl)cccc1Cl [Example 42],7 nM,"1,940,000 moles^−1 seconds^−1","842,000 moles^−1 seconds^−1",21 nM,7 nM,"745,000 moles^−1 seconds^−1",4.6 nM,"1,630,000 moles^−1 seconds^−1",–,–,–,–,–,–,–,–
C[C@H](NC(=O)C(=O)Nc1ccccc1C(C)(C)C)C(=O)N[C@@H](CC(=O)O)C(=O)COP(=O)(c1ccccc1)c1ccccc1 [Example 47],14 nM,"625,000 moles^−1 seconds^−1","395,000 moles^−1 seconds^−1",24 nM,11 nM,"484,000 moles^−1 seconds^−1",8.7 nM,"589,000 moles^−1 seconds^−1",–,–,–,–,–,–,–,–
C[C@H](NC(=O)C(=O)NC12CC3CC(CC(C3)C1)C2)C(=O)N[C@@H](CC(=O)O)C(=O)COC(=O)c1c(Cl)cccc1Cl [Example 54],–,–,–,–,–,–,–,–,348 nM,"46,000 moles^−1 seconds^−1","20,500 moles^−1 seconds^−1",409 nM,120 nM,"21,100 moles^−1 seconds^−1",80 nM,"18,700 moles^−1 seconds^−1"
